Measurements: article PMC11345841, “Exploring 2-Sulfonylpyrimidine Warheads as Acrylamide Surrogates for Targeted Covalent Inhibition: A BTK Story” (Journal of Medicinal Chemistry, 2024)
Like-named read-outs stand apart in the source and are kept apart here.

Tests used:
[1] = target: T1, IGF1R (Homo sapiens, UniProt P08069); experiment: KINOMEscan ScanTK; type: binding
T1 construct: purchased Eurofins DiscoverX KINOMEscan (scanTK)

[2] = target: T2, BRK (Homo sapiens, UniProt Q13882); experiment: KINOMEscan ScanTK; type: binding
T2 construct: purchased Eurofins DiscoverX KINOMEscan (scanTK)

[3] = target: T3, FGFR3(G697C) (Homo sapiens, UniProt P22607, G697C); experiment: KINOMEscan ScanTK; type: binding
T3 construct: purchased Eurofins DiscoverX KINOMEscan (scanTK)

[4] = target: T4, SRMS (Homo sapiens, UniProt Q9H3Y6); experiment: KINOMEscan ScanTK; type: binding; details: for remaining binding at 1 µM: SRMS
T4 construct: purchased Eurofins DiscoverX KINOMEscan (scanTK)

[5] = target: T5, EPHA6 (Homo sapiens, UniProt Q9UF33); experiment: KINOMEscan ScanTK; type: binding
T5 construct: purchased Eurofins DiscoverX KINOMEscan (scanTK)
T5 sequence (Q9UF33 23-1036): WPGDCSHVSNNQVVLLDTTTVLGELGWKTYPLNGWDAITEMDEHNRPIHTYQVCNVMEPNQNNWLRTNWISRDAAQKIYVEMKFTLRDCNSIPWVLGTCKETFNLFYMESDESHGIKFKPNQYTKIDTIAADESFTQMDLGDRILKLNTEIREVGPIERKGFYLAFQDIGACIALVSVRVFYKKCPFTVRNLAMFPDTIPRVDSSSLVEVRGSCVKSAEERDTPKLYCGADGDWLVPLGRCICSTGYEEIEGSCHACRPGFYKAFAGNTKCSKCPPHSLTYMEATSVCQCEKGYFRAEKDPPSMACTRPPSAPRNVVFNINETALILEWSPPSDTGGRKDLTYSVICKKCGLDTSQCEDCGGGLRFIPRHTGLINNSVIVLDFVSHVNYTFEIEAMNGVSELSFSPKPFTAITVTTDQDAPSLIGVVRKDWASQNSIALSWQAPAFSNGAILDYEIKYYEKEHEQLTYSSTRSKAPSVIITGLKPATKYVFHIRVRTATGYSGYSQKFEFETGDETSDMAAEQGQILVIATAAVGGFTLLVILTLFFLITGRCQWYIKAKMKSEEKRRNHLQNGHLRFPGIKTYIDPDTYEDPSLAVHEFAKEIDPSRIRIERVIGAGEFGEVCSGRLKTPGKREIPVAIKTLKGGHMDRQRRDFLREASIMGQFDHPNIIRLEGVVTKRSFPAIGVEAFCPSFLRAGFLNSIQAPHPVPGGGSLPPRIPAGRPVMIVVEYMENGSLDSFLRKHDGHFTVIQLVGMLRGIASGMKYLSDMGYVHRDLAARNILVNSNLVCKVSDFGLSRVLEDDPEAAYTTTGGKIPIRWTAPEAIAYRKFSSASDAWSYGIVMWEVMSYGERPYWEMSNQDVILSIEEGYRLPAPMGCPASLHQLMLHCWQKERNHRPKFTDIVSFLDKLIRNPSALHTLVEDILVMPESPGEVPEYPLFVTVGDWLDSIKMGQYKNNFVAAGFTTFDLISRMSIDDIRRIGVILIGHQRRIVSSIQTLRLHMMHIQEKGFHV

[6] = target: T6, ABL1(Y253F)-phosphorylated (Homo sapiens, UniProt P00519, Y253F); experiment: KINOMEscan ScanTK; type: binding
T6 construct: purchased Eurofins DiscoverX KINOMEscan (scanTK)

[7] = target: T7, KIT(A829P) (Homo sapiens, UniProt P10721, A829P); experiment: KINOMEscan ScanTK; type: binding
T7 construct: purchased Eurofins DiscoverX KINOMEscan (scanTK)

[8] = target: T8, EGFR, cytoplasmic domain (669–1210) (Homo sapiens, UniProt P00533); experiment: PhosphoSens enzymatic IC50 (AssayQuant); type: biochemical; details: no preincubation
T8 construct: GST (N); purchased Carna Biosciences
Excerpt: (§1) Biochemical enzymatic IC50 data were generated by AssayQuant Technologies (Marlborough, MA) using the PhosphoSens Platform. […] Reaction rate versus log [inhibitor concentration] data were fitted to the four-parameter logistic equation [drawing 1]

[9] = target: BTK, full length (2–659) (Homo sapiens, UniProt Q06187); experiment: PhosphoSens enzymatic IC50 (AssayQuant); type: biochemical; details: for IC50: 1 nM BTK, 1.0 mM ATP; for fold change, 1 nM BTK: IC50 0 min vs 60 min preincubation
Excerpt: as §1

[10] = target: T9, ITK, full length (Homo sapiens, UniProt Q08881); experiment: PhosphoSens enzymatic IC50 (AssayQuant)
T9 sequence (Q08881 1-620): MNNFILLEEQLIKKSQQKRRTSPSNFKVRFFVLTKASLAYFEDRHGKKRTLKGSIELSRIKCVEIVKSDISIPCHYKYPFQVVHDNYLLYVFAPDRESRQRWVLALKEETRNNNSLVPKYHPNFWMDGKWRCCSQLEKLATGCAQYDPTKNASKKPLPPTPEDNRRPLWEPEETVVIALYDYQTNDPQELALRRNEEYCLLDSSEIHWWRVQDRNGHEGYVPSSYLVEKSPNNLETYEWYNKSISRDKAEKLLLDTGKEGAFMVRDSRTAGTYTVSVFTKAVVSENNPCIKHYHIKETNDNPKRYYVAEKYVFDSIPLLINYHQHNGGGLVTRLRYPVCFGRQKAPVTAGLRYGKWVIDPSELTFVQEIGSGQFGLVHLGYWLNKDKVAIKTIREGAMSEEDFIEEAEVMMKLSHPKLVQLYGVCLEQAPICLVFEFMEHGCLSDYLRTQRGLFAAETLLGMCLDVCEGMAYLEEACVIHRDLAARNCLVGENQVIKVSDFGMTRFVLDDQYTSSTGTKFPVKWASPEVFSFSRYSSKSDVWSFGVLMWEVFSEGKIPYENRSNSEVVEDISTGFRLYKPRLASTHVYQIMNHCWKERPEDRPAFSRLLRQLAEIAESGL

[11] = target: T10, ABL1(T315I)-phosphorylated (Homo sapiens, UniProt P00519, T315I); experiment: KINOMEscan ScanTK; type: binding
T10 construct: purchased Eurofins DiscoverX KINOMEscan (scanTK)

[12] = target: T11, YES (Homo sapiens, UniProt P07947); experiment: KINOMEscan ScanTK; type: binding
T11 construct: purchased Eurofins DiscoverX KINOMEscan (scanTK)

[13] = 0 min preincubation IC50 (nM), 0 min preincubation
[14] = 60 min preincubation IC50 (nM), 60 min preincubation

BTK, full length (2–659), sequence (Q06187 2-659): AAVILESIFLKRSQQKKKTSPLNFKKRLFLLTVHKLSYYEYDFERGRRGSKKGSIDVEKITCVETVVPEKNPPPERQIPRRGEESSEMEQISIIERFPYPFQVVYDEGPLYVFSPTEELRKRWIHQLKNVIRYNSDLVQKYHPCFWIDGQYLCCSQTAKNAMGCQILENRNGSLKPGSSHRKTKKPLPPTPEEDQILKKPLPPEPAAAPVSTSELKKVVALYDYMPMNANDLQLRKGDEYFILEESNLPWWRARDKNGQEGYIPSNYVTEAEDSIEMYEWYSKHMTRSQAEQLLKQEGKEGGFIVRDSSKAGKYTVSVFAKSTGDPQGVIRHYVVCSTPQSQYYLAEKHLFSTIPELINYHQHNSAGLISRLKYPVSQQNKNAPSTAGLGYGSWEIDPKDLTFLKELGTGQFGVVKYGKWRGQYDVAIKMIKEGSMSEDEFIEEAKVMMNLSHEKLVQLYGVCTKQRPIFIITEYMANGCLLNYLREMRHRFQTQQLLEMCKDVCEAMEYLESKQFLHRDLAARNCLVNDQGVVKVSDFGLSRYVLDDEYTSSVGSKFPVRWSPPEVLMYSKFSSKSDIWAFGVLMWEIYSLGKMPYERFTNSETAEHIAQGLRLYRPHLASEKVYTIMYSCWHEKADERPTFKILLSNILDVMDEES
T2 sequence (Q13882 whole entry): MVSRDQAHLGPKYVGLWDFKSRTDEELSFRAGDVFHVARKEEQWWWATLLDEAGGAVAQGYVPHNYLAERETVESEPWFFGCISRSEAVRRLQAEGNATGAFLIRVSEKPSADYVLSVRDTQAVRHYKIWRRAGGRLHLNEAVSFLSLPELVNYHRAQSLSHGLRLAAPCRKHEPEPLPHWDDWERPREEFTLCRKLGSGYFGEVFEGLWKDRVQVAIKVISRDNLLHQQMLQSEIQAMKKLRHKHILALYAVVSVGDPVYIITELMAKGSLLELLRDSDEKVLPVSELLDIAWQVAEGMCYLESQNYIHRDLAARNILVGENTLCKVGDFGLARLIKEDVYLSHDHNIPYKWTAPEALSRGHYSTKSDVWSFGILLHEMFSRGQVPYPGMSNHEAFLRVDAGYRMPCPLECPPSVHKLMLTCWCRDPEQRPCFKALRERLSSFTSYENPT
T3 sequence (P22607 23-806 G697C): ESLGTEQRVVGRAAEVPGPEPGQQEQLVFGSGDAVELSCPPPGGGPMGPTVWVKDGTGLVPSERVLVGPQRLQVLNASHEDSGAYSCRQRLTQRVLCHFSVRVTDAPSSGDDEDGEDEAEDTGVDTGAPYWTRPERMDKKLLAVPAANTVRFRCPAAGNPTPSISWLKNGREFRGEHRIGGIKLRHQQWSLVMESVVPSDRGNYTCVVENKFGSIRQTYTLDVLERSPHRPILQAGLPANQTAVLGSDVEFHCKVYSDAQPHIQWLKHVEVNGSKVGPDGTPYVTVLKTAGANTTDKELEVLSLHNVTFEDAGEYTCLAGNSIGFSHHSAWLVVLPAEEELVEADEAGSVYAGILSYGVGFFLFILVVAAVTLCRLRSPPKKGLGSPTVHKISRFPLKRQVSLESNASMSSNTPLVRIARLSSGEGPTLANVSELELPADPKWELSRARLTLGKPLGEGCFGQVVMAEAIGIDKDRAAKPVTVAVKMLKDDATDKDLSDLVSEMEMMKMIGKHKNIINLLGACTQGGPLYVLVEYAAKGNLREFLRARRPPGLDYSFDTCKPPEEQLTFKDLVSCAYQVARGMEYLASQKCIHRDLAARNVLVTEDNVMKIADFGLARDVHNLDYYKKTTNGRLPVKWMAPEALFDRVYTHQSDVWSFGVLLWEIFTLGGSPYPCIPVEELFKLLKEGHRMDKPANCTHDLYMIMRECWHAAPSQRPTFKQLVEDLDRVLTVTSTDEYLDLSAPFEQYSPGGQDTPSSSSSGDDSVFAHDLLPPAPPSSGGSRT
T4 sequence (Q9H3Y6 whole entry): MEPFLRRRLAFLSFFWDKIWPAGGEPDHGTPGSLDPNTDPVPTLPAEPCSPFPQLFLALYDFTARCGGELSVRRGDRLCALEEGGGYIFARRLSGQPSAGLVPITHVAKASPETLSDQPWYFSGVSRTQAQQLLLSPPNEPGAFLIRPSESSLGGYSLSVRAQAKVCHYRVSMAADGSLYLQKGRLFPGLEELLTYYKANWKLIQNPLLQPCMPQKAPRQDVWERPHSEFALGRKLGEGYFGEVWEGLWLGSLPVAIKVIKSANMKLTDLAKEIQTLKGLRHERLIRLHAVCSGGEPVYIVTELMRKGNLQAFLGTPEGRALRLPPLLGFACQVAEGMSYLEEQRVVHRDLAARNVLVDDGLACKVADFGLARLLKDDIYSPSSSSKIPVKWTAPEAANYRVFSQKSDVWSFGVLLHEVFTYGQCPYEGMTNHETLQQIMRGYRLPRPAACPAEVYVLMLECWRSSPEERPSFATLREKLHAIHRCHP
T7 sequence (P10721 26-976 A829P): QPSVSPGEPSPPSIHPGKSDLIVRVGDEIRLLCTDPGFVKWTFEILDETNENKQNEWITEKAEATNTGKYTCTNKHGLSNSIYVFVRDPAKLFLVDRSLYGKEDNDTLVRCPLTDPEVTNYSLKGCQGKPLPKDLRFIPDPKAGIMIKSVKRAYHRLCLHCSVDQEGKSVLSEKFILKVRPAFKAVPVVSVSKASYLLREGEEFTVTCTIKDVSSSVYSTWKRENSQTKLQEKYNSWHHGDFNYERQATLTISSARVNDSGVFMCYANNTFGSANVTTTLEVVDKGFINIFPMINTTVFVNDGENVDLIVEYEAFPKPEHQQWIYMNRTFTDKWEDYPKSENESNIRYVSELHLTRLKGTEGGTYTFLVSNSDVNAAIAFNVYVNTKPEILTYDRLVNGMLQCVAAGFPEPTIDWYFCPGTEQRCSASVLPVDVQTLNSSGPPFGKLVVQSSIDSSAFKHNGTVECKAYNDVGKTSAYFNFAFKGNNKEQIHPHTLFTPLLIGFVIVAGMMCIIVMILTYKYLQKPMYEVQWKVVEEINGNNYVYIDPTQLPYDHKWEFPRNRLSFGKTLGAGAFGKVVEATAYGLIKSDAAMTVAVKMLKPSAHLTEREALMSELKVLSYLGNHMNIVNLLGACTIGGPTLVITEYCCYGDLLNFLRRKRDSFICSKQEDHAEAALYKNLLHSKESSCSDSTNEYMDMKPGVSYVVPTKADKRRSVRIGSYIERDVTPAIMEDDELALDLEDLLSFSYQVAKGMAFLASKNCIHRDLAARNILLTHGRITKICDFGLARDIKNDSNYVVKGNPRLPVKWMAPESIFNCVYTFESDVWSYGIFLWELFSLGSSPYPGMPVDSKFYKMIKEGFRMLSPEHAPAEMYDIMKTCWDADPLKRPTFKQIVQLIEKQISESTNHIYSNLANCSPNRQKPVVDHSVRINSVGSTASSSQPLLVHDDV
T1 sequence (P08069 31-1367): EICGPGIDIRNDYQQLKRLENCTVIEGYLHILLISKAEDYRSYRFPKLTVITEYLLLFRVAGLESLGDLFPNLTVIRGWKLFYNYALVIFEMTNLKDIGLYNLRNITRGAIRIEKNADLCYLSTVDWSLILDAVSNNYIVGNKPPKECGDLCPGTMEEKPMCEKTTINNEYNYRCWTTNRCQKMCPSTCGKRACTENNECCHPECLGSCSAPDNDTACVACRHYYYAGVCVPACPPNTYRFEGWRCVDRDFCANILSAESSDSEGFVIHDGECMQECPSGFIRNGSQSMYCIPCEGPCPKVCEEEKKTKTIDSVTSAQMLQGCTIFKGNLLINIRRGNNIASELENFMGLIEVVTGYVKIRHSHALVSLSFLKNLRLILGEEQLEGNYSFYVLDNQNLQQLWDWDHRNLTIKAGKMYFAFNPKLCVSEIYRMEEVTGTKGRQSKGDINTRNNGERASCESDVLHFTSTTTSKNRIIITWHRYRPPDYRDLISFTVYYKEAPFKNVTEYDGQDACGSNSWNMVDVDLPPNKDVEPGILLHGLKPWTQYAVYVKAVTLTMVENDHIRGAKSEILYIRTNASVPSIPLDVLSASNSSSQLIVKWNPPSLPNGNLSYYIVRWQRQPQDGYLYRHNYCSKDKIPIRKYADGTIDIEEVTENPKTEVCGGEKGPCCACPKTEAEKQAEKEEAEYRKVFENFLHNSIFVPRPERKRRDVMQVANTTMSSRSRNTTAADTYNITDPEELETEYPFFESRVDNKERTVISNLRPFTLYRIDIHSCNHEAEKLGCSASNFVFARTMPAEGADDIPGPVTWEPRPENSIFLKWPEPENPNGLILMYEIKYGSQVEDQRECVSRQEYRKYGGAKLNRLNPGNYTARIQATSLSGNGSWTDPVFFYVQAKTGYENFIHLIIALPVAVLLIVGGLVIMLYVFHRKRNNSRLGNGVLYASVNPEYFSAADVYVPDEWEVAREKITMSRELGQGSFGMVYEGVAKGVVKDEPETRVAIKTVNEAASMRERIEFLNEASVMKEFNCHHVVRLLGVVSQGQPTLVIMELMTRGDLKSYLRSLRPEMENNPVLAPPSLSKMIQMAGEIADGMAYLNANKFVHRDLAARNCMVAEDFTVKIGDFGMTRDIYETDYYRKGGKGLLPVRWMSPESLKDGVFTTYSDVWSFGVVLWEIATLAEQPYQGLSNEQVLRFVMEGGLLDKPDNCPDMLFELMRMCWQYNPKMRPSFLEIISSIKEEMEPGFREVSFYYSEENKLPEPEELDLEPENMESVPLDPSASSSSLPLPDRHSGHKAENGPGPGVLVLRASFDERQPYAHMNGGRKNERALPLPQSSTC

Structure (SMILES)	remaining binding at 1 µM ([1]; @1000nM, read-out: %Control)	remaining binding at 1 µM ([1]; read-out: %Control @1000nM)	remaining binding at 1 µM ([2]; @1000nM, read-out: %Control)	remaining binding at 1 µM ([2]; read-out: %Control @1000nM)	remaining binding at 1 µM ([3]; @1000nM, read-out: %Control)	remaining binding at 1 µM ([3]; read-out: %Control @1000nM)	remaining binding at 1 µM ([4]; @1000nM, read-out: %Control)	remaining binding at 1 µM ([4]; read-out: %Control @1000nM)	remaining binding at 1 µM ([5]; @1000nM, read-out: %Control)	remaining binding at 1 µM ([5]; read-out: %Control @1000nM)	remaining binding at 1 µM ([6]; @1000nM, read-out: %Control)	remaining binding at 1 µM ([6]; read-out: %Control @1000nM)	% Control difference from reference compound Ib at 1 µM ([1]; @1000nM)	difference in %Control relative to compound Ib at 1 µM ([2]; @1000nM)	difference in %Control versus compound Ib at 1 µM ([3]; @1000nM)	remaining binding at 1 µM ([7]; @1000nM, read-out: %Control)	remaining binding at 1 µM ([7]; read-out: %Control @1000nM)	difference in %Control from compound Ib at 1 µM ([5]; @1000nM)	difference in %Control from compound Ib at 1 µM ([6]; @1000nM)	difference in %Control versus compound Ib at 1 µM ([11]; @1000nM)	other results
C=CC(=O)N1CCC[C@@H](n2nc(-c3ccc(Oc4ccccc4)cc3)c3c(N)ncnc32)C1 [Compound 1g, Ibrutinib, reference compound]	96%	96%	1.3%	1.3%	40%	40%	0%	0%	77%	77%	77%	77%	–	–	–	–	–	–	–	–	inhibition at 1 µM ([4]; read-out: % inhibition, SRMS): > 99%
CNC(=O)c1cnc(S(C)(=O)=O)nc1N1CCCC(n2nc(-c3ccc(Oc4ccccc4)cc3)c3c(N)ncnc32)C1 (stereo not shown) [Compound 8d, 4-(3-(4-Amino-3-(4-phenoxyphenyl)-1H-pyrazolo[3,4-d]pyrimidin-1-yl)piperidin-1-yl)-N-methyl-2-(methylsulfonyl)pyrimidine-5-carboxamide]	100%	100%	15%	15%	87%	87%	6.5%	6.5%	97%	97%	80%	80%	4%	13.7%	47%	63%	63%	20%	3%	6%	0 min IC50 (nM), 3 nM EGFR [8]: none of the compounds, 8a, 8b, or 8d, exhibited measurable inhibition; IC50 [8]: > 1000 nM; IC50 [9, 13]: 3.6 nM; IC50 [9, 14]: 1.2 nM; fold change, 1 nM BTK [9]: 3.1; IC50 [10]: > 1000 nM; remaining binding at 1 µM ([11]; @1000nM, read-out: %Control): 85%; remaining binding at 1 µM ([11]; read-out: %Control @1000nM): 85%; remaining binding at 1 µM ([12]; @1000nM, read-out: %Control): 11%; remaining binding at 1 µM ([12]; read-out: %Control @1000nM): 11%

Further lines, with some results ahead:

remaining binding at 1 µM ([1]; @1000nM, read-out: %Control)	remaining binding at 1 µM ([1]; read-out: %Control @1000nM)	remaining binding at 1 µM ([2]; @1000nM, read-out: %Control)	remaining binding at 1 µM ([2]; read-out: %Control @1000nM)	remaining binding at 1 µM ([3]; @1000nM, read-out: %Control)	remaining binding at 1 µM ([3]; read-out: %Control @1000nM)	remaining binding at 1 µM ([4]; @1000nM, read-out: %Control)	remaining binding at 1 µM ([4]; read-out: %Control @1000nM)	remaining binding at 1 µM ([5]; @1000nM, read-out: %Control)	remaining binding at 1 µM ([5]; read-out: %Control @1000nM)	remaining binding at 1 µM ([6]; @1000nM, read-out: %Control)	remaining binding at 1 µM ([6]; read-out: %Control @1000nM)	% Control difference from reference compound Ib at 1 µM ([1]; @1000nM)	difference in %Control relative to compound Ib at 1 µM ([2]; @1000nM)	difference in %Control versus compound Ib at 1 µM ([3]; @1000nM)	remaining binding at 1 µM ([7]; @1000nM, read-out: %Control)	remaining binding at 1 µM ([7]; read-out: %Control @1000nM)	difference in %Control from compound Ib at 1 µM ([5]; @1000nM)	difference in %Control from compound Ib at 1 µM ([6]; @1000nM)	difference in %Control versus compound Ib at 1 µM ([11]; @1000nM)	Structure (SMILES)	other results
100%	100%	15%	15%	97%	97%	16%	16%	100%	100%	83%	83%	4%	13.7%	57%	84%	84%	23%	6%	-9%	Cc1cnc(S(C)(=O)=O)nc1N1CCCC(n2nc(-c3ccc(Oc4ccccc4)cc3)c3c(N)ncnc32)C1 (stereo not shown) [Compound 8a, 1-(1-(5-Methyl-2-(methylsulfonyl)pyrimidin-4-yl)piperidin-3-yl)-3-(4-phenoxyphenyl)-1H-pyrazolo[3,4-d]pyrimidin-4-amine]	0 min IC50 (nM), 3 nM EGFR [8]: none of the compounds, 8a, 8b, or 8d, exhibited measurable inhibition; IC50 [8]: > 1000 nM; IC50 [9, 13]: 6 nM; IC50 [9, 14]: 0.31 nM; fold change, 1 nM BTK [9]: 19.6; IC50 [10]: > 1000 nM; remaining binding at 1 µM ([11]; @1000nM, read-out: %Control): 70%; remaining binding at 1 µM ([11]; read-out: %Control @1000nM): 70%; remaining binding at 1 µM ([12]; @1000nM, read-out: %Control): 8.1%; remaining binding at 1 µM ([12]; read-out: %Control @1000nM): 8.1%
94%	94%	42%	42%	84%	84%	27%	27%	92%	92%	78%	78%	-2%	40.7%	44%	70%	70%	15%	1%	-11%	COC(=O)c1cnc(S(C)(=O)=O)nc1N1CCCC(n2nc(-c3ccc(Oc4ccccc4)cc3)c3c(N)ncnc32)C1 (stereo not shown) [Compound 8b, Methyl 4-(3-(4-Amino-3-(4-phenoxyphenyl)-1H-pyrazolo[3,4-d]pyrimidin-1-yl)piperidin-1-yl)-2-(methylsulfonyl)pyrimidine-5-carboxylate]	0 min IC50 (nM), 3 nM EGFR [8]: none of the compounds, 8a, 8b, or 8d, exhibited measurable inhibition; IC50 [8]: > 1000 nM; IC50 [9, 13]: 79 nM; IC50 [9, 14]: 6.3 nM; fold change, 1 nM BTK [9]: 12.5; IC50 [10]: > 1000 nM; remaining binding at 1 µM ([11]; @1000nM, read-out: %Control): 68%; remaining binding at 1 µM ([11]; read-out: %Control @1000nM): 68%; remaining binding at 1 µM ([12]; @1000nM, read-out: %Control): 16%; remaining binding at 1 µM ([12]; read-out: %Control @1000nM): 16%
92%	92%	54%	54%	90%	90%	32%	32%	87%	87%	81%	81%	-4%	52.7%	50%	73%	73%	10%	4%	-7%	CCOC(=O)c1cnc(S(C)(=O)=O)nc1N1CCC[C@@H](n2nc(-c3ccc(Oc4ccccc4)cc3)c3c(N)ncnc32)C1 [Compound 8c, Ethyl (R)-4-(3-(4-Amino-3-(4-phenoxyphenyl)-1H-pyrazolo[3,4-d]pyrimidin-1-yl)piperidin-1-yl)-2-(methylsulfonyl)pyrimidine-5-carboxylate]	remaining binding at 1 µM ([11]; @1000nM, read-out: %Control): 72%; remaining binding at 1 µM ([11]; read-out: %Control @1000nM): 72%; remaining binding at 1 µM ([12]; @1000nM, read-out: %Control): 25%; remaining binding at 1 µM ([12]; read-out: %Control @1000nM): 25%
